According to the NIST ThermoML archive (doi:10.1021/acs.jced.8b00201):
± gives the expanded uncertainty stated by the source.

Experiment: xn = mol fraction of the nth substance listed
Settings: 100 kPa, Liquid; for viscosity: Concentric cylinders viscometry; for mass density: Vibrating tube method

O=C1CCCCC1 [cyclohexanone] + CCCCCCCCCCO
Settings	mass density [kg/m3]	viscosity [mPa·s]
293.15 K, x1 = 0.0807	834.5 ± 20	12.23 ± 0.62
293.15 K, x1 = 0.1613	840 ± 20	10.39 ± 0.52
293.15 K, x1 = 0.2387	845.6 ± 20	8.73 ± 0.44
293.15 K, x1 = 0.3519	855.1 ± 20	6.64 ± 0.34
293.15 K, x1 = 0.4407	863.4 ± 20	5.35 ± 0.27
293.15 K, x1 = 0.5568	875.9 ± 20	3.94 ± 0.2
293.15 K, x1 = 0.6517	887.7 ± 20	3.08 ± 0.16
293.15 K, x1 = 0.7412	900.4 ± 20	2.54 ± 0.13
293.15 K, x1 = 0.8518	918.6 ± 20	2.22 ± 0.11
293.15 K, x1 = 0.9441	936.5 ± 20	2.17 ± 0.11
293.15 K, x1 = 1	948.8 ± 20	2.3 ± 0.12
298.15 K, x1 = 0.0807	830.9 ± 20	10 ± 0.5
298.15 K, x1 = 0.1613	836.4 ± 20	8.43 ± 0.42
298.15 K, x1 = 0.2387	841.8 ± 20	7.18 ± 0.36
298.15 K, x1 = 0.3519	851 ± 20	5.67 ± 0.29
298.15 K, x1 = 0.4407	859.2 ± 20	4.69 ± 0.24
298.15 K, x1 = 0.5568	871.4 ± 20	3.56 ± 0.18
298.15 K, x1 = 0.6517	883 ± 20	2.87 ± 0.15
298.15 K, x1 = 0.7412	895.4 ± 20	2.43 ± 0.12
298.15 K, x1 = 0.8518	913.3 ± 20	2.13 ± 0.11
298.15 K, x1 = 0.9441	930.9 ± 20	2.08 ± 0.11
298.15 K, x1 = 1	943.1 ± 20	2.09 ± 0.11
303.15 K, x1 = 0.0807	827.4 ± 20	8.39 ± 0.42
303.15 K, x1 = 0.1613	832.6 ± 20	7.21 ± 0.36
303.15 K, x1 = 0.2387	838.1 ± 20	6.19 ± 0.31
303.15 K, x1 = 0.3519	847.2 ± 20	4.87 ± 0.25
303.15 K, x1 = 0.4407	855.2 ± 20	4.04 ± 0.2
303.15 K, x1 = 0.5568	867.3 ± 20	3.16 ± 0.16
303.15 K, x1 = 0.6517	878.7 ± 20	2.6 ± 0.13
303.15 K, x1 = 0.7412	891 ± 20	2.23 ± 0.11
303.15 K, x1 = 0.8518	908.7 ± 20	1.97 ± 0.1
303.15 K, x1 = 0.9441	926.1 ± 20	1.89 ± 0.1
303.15 K, x1 = 1	938.2 ± 20	1.91 ± 0.1
308.15 K, x1 = 0.0807	823.9 ± 20	7.09 ± 0.36
308.15 K, x1 = 0.1613	829.1 ± 20	6.14 ± 0.31
308.15 K, x1 = 0.2387	834.5 ± 20	5.38 ± 0.27
308.15 K, x1 = 0.3519	843.4 ± 20	4.37 ± 0.22
308.15 K, x1 = 0.4407	851.4 ± 20	3.69 ± 0.19
308.15 K, x1 = 0.5568	863.3 ± 20	2.94 ± 0.15
308.15 K, x1 = 0.6517	874.6 ± 20	2.45 ± 0.12
308.15 K, x1 = 0.7412	886.7 ± 20	2.11 ± 0.11
308.15 K, x1 = 0.8518	904.2 ± 20	1.84 ± 0.09
308.15 K, x1 = 0.9441	921.5 ± 20	1.73 ± 0.09
308.15 K, x1 = 1	933.5 ± 20	1.75 ± 0.09
313.15 K, x1 = 0.0807	820.4 ± 20	5.99 ± 0.3
313.15 K, x1 = 0.1613	825.5 ± 20	5.26 ± 0.26
313.15 K, x1 = 0.2387	830.8 ± 20	4.6 ± 0.23
313.15 K, x1 = 0.3519	839.6 ± 20	3.75 ± 0.19
313.15 K, x1 = 0.4407	847.4 ± 20	3.17 ± 0.16
313.15 K, x1 = 0.5568	859.2 ± 20	2.6 ± 0.13
313.15 K, x1 = 0.6517	870.3 ± 20	2.21 ± 0.11
313.15 K, x1 = 0.7412	882.4 ± 20	1.92 ± 0.1
313.15 K, x1 = 0.8518	899.7 ± 20	1.7 ± 0.09
313.15 K, x1 = 0.9441	916.9 ± 20	1.57 ± 0.08
313.15 K, x1 = 1	928.8 ± 20	1.6 ± 0.08
318.15 K, x1 = 0.0807	816.9 ± 20	5.08 ± 0.26
318.15 K, x1 = 0.1613	821.9 ± 20	4.45 ± 0.22
318.15 K, x1 = 0.2387	827.2 ± 20	3.86 ± 0.19
318.15 K, x1 = 0.3519	835.9 ± 20	3.15 ± 0.16
318.15 K, x1 = 0.4407	843.6 ± 20	2.69 ± 0.14
318.15 K, x1 = 0.5568	855.3 ± 20	2.19 ± 0.11
318.15 K, x1 = 0.6517	866.3 ± 20	1.88 ± 0.1
318.15 K, x1 = 0.7412	878.3 ± 20	1.67 ± 0.08
318.15 K, x1 = 0.8518	895.5 ± 20	1.51 ± 0.08
318.15 K, x1 = 0.9441	912.6 ± 20	1.44 ± 0.07
318.15 K, x1 = 1	924.4 ± 20	1.46 ± 0.07
323.15 K, x1 = 0.0807	813.3 ± 20	4.41 ± 0.22
323.15 K, x1 = 0.1613	818.3 ± 20	3.88 ± 0.2
323.15 K, x1 = 0.2387	823.5 ± 20	3.43 ± 0.17
323.15 K, x1 = 0.3519	832.1 ± 20	2.84 ± 0.14
323.15 K, x1 = 0.4407	839.8 ± 20	2.46 ± 0.12
323.15 K, x1 = 0.5568	851.4 ± 20	2.05 ± 0.1
323.15 K, x1 = 0.6517	862.5 ± 20	1.78 ± 0.09
323.15 K, x1 = 0.7412	874.4 ± 20	1.57 ± 0.08
323.15 K, x1 = 0.8518	891.7 ± 20	1.42 ± 0.07
323.15 K, x1 = 0.9441	908.8 ± 20	1.35 ± 0.07
323.15 K, x1 = 1	920.7 ± 20	1.34 ± 0.07

O=C1CCCCC1 [cyclohexanone] + CCCCCO
Settings	mass density [kg/m3]	viscosity [mPa·s]
293.15 K, x1 = 0.0803	825.1 ± 20	3.57 ± 0.18
293.15 K, x1 = 0.1609	835.7 ± 20	3.16 ± 0.16
293.15 K, x1 = 0.2403	846.2 ± 20	2.8 ± 0.2
293.15 K, x1 = 0.3473	860.4 ± 20	2.41 ± 0.12
293.15 K, x1 = 0.4404	872.7 ± 20	2.17 ± 0.11
293.15 K, x1 = 0.5619	889 ± 20	1.96 ± 0.1
293.15 K, x1 = 0.6501	900.9 ± 20	1.88 ± 0.09
293.15 K, x1 = 0.747	914 ± 20	1.87 ± 0.09
293.15 K, x1 = 0.8494	928 ± 20	1.98 ± 0.1
293.15 K, x1 = 0.9404	940.5 ± 20	2.12 ± 0.11
293.15 K, x1 = 1	948.8 ± 20	2.3 ± 0.12
298.15 K, x1 = 0.0803	821.1 ± 20	3.1 ± 0.16
298.15 K, x1 = 0.1609	831.6 ± 20	2.77 ± 0.14
298.15 K, x1 = 0.2403	841.9 ± 20	2.49 ± 0.13
298.15 K, x1 = 0.3473	855.8 ± 20	2.15 ± 0.11
298.15 K, x1 = 0.4404	868 ± 20	1.96 ± 0.1
298.15 K, x1 = 0.5619	884.1 ± 20	1.8 ± 0.09
298.15 K, x1 = 0.6501	895.8 ± 20	1.74 ± 0.09
298.15 K, x1 = 0.747	908.8 ± 20	1.74 ± 0.09
298.15 K, x1 = 0.8494	922.6 ± 20	1.83 ± 0.09
298.15 K, x1 = 0.9404	934.9 ± 20	1.97 ± 0.1
298.15 K, x1 = 1	943.1 ± 20	2.09 ± 0.11
303.15 K, x1 = 0.0803	817.3 ± 20	2.71 ± 0.14
303.15 K, x1 = 0.1609	827.6 ± 20	2.44 ± 0.12
303.15 K, x1 = 0.2403	837.8 ± 20	2.2 ± 0.11
303.15 K, x1 = 0.3473	851.6 ± 20	1.94 ± 0.1
303.15 K, x1 = 0.4404	863.7 ± 20	1.77 ± 0.09
303.15 K, x1 = 0.5619	879.6 ± 20	1.63 ± 0.08
303.15 K, x1 = 0.6501	891.2 ± 20	1.58 ± 0.08
303.15 K, x1 = 0.747	904.1 ± 20	1.58 ± 0.08
303.15 K, x1 = 0.8494	917.8 ± 20	1.67 ± 0.08
303.15 K, x1 = 0.9404	930.1 ± 20	1.78 ± 0.09
303.15 K, x1 = 1	938.2 ± 20	1.91 ± 0.1
308.15 K, x1 = 0.0803	813.4 ± 20	2.38 ± 0.12
308.15 K, x1 = 0.1609	823.6 ± 20	2.14 ± 0.11
308.15 K, x1 = 0.2403	833.7 ± 20	1.95 ± 0.1
308.15 K, x1 = 0.3473	847.4 ± 20	1.73 ± 0.09
308.15 K, x1 = 0.4404	859.5 ± 20	1.6 ± 0.1
308.15 K, x1 = 0.5619	875.3 ± 20	1.49 ± 0.08
308.15 K, x1 = 0.6501	886.8 ± 20	1.46 ± 0.07
308.15 K, x1 = 0.747	899.6 ± 20	1.46 ± 0.07
308.15 K, x1 = 0.8494	913.2 ± 20	1.54 ± 0.08
308.15 K, x1 = 0.9404	925.5 ± 20	1.64 ± 0.08
308.15 K, x1 = 1	933.5 ± 20	1.75 ± 0.09
313.15 K, x1 = 0.0803	809.6 ± 20	2.08 ± 0.1
313.15 K, x1 = 0.1609	819.7 ± 20	1.9 ± 0.1
313.15 K, x1 = 0.2403	829.8 ± 20	1.73 ± 0.09
313.15 K, x1 = 0.3473	843.4 ± 20	1.54 ± 0.08
313.15 K, x1 = 0.4404	855.3 ± 20	1.43 ± 0.07
313.15 K, x1 = 0.5619	871 ± 20	1.34 ± 0.07
313.15 K, x1 = 0.6501	882.4 ± 20	1.32 ± 0.07
313.15 K, x1 = 0.747	895.1 ± 20	1.33 ± 0.07
313.15 K, x1 = 0.8494	908.7 ± 20	1.4 ± 0.07
313.15 K, x1 = 0.9404	920.8 ± 20	1.5 ± 0.08
313.15 K, x1 = 1	928.8 ± 20	1.6 ± 0.08
318.15 K, x1 = 0.0803	805.7 ± 20	1.84 ± 0.09
318.15 K, x1 = 0.1609	815.7 ± 20	1.68 ± 0.08
318.15 K, x1 = 0.2403	825.6 ± 20	1.53 ± 0.08
318.15 K, x1 = 0.3473	839.1 ± 20	1.38 ± 0.07
318.15 K, x1 = 0.4404	851 ± 20	1.29 ± 0.07
318.15 K, x1 = 0.5619	866.6 ± 20	1.21 ± 0.06
318.15 K, x1 = 0.6501	878.1 ± 20	1.19 ± 0.06
318.15 K, x1 = 0.747	890.7 ± 20	1.21 ± 0.06
318.15 K, x1 = 0.8494	904.3 ± 20	1.28 ± 0.06
318.15 K, x1 = 0.9404	916.4 ± 20	1.37 ± 0.07
318.15 K, x1 = 1	924.4 ± 20	1.46 ± 0.07
323.15 K, x1 = 0.0803	801.9 ± 20	1.65 ± 0.08
323.15 K, x1 = 0.1609	811.9 ± 20	1.52 ± 0.08
323.15 K, x1 = 0.2403	821.8 ± 20	1.4 ± 0.07
323.15 K, x1 = 0.3473	835.3 ± 20	1.27 ± 0.06
323.15 K, x1 = 0.4404	847.1 ± 20	1.19 ± 0.06
323.15 K, x1 = 0.5619	862.8 ± 20	1.21 ± 0.06
323.15 K, x1 = 0.6501	874.2 ± 20	1.107 ± 0.056
323.15 K, x1 = 0.747	886.9 ± 20	1.13 ± 0.06
323.15 K, x1 = 0.8494	900.5 ± 20	1.19 ± 0.06
323.15 K, x1 = 0.9404	912.7 ± 20	1.27 ± 0.06
323.15 K, x1 = 1	920.7 ± 20	1.34 ± 0.07
